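1) Cells in 96-well plates. 2) Compound, 48 h, 5 concentrations. 3) Linear interpolation between surrounding doses. 4) Unreached endpoint = highest concentration. TGI marks complete inhibition of growth.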
Key:
Test in all cases: DTP human tumour cell line panel, 48 h
[1] = test system: SNB-19 CNS
[2] = test system: HCT-15 colon
[3] = test system: NCI-H522 lung
[4] = test system: T-47D breast
[5] = test system: RXF 393 renal
[6] = test system: K-562 leukemia
[7] = test system: A549 NSCLC
[8] = test system: EKVX NSCLC
[9] = test system: NCI-H23 lung
[10] = test system: MDA-MB-435

SMILES: O=C1c2cc(I)ccc2N2CCN=C2N1Cc1ccccc1
- TGI [1]: > 100 µM
- TGI [2]: > 100 µM
- TGI [3]: > 100 µM
- TGI [4]: > 100 µM
- TGI [5]: 49.4 µM
- TGI [6]: > 100 µM
- TGI [7]: > 100 µM
- TGI [8]: > 100 µM
- TGI [9]: > 100 µM
- TGI [10]: > 100 µM

SMILES: CCC(=O)Nc1cccc(N=Cc2ccc(OC(=O)/C=C\c3ccccc3)cc2)c1
- TGI [1]: > 75 µM
- TGI [2]: > 75 µM
- TGI [3]: > 75 µM
- TGI [4]: 37.7 µM
- TGI [5]: 48.1 µM
- TGI [6]: > 75 µM
- TGI [7]: > 75 µM
- TGI [8]: > 75 µM
- TGI [9]: > 75 µM
- TGI [10]: > 75 µM

SMILES: Oc1c(CN2CCCC2)ccc2cccnc12
- TGI [1]: > 31.6 µM
- TGI [2]: > 41.2 µM
- TGI [3]: > 100 µM
- TGI [4]: > 100 µM
- TGI [5]: > 100 µM
- TGI [6]: > 100 µM
- TGI [7]: > 100 µM
- TGI [8]: > 100 µM
- TGI [9]: 99.6 µM
- TGI [10]: > 100 µM

SMILES: COc1ccc(-n2c(SC(CN3CCOCC3)CN3CCCC3=O)nc3ccccc3c2=O)cc1 (stereo not given)
- TGI [1]: > 100 µM
- TGI [2]: > 100 µM
- TGI [3]: > 100 µM
- TGI [4]: > 100 µM
- TGI [5]: > 100 µM
- TGI [6]: > 100 µM
- TGI [7]: > 100 µM
- TGI [8]: > 100 µM
- TGI [9]: > 100 µM
- TGI [10]: > 100 µM

SMILES: Cc1cc2nc3c(C#N)c4c(c(Nc5ccc(F)cc5)n3c2cc1C)CCC4
- TGI [1]: > 100 µM
- TGI [2]: > 100 µM
- TGI [3]: > 100 µM
- TGI [4]: > 100 µM
- TGI [5]: > 100 µM
- TGI [6]: > 100 µM
- TGI [7]: > 100 µM
- TGI [8]: > 100 µM
- TGI [9]: > 100 µM
- TGI [10]: > 100 µM

SMILES: CN1CCN(C(=O)CCC(=O)Nc2cc3c(c4ccccc24)-c2ccc4ccccc4c2C3)CC1
- TGI [1]: 3.93 µM
- TGI [2]: 3.68 µM
- TGI [3]: 3.2 µM
- TGI [4]: 3.57 µM
- TGI [5]: 3.45 µM
- TGI [7]: 3.96 µM
- TGI [8]: 3.13 µM
- TGI [9]: 3.47 µM
- TGI [10]: 3.02 µM

SMILES: N#Cc1c(N)oc(-c2ccc([N+](=O)[O-])cc2)c1C#N
- TGI [1]: 91.6 µM
- TGI [2]: 53.1 µM
- TGI [3]: 60.3 µM
- TGI [4]: 76.2 µM
- TGI [5]: > 100 µM
- TGI [7]: > 100 µM
- TGI [8]: 59.6 µM
- TGI [9]: 57.2 µM
- TGI [10]: > 100 µM

SMILES: Cc1cc2cc3cc(C)c(N)cc3nc2cc1N
- TGI [1]: 3.29 µM
- TGI [2]: 2.2 µM
- TGI [3]: 1.7 µM
- TGI [4]: 2.43 µM
- TGI [5]: 2.47 µM
- TGI [6]: 3.28 µM
- TGI [7]: 2.07 µM
- TGI [8]: 1.47 µM
- TGI [9]: 2.24 µM
- TGI [10]: 11 µM

SMILES: COc1ccccc1NC(=S)N=Nc1c(O)[nH]c2ccccc12
- TGI [1]: > 100 µM
- TGI [2]: > 100 µM
- TGI [3]: > 100 µM
- TGI [4]: > 100 µM
- TGI [5]: > 100 µM
- TGI [6]: > 100 µM
- TGI [7]: > 100 µM
- TGI [8]: > 100 µM
- TGI [9]: > 100 µM
- TGI [10]: > 100 µM

SMILES: C[C@@]1(CCCCCCCCCCc2ccccc2)C[C@@]2(C)OC(=O)C[C@H]2OO1
- TGI [1]: 5.24 µM
- TGI [2]: 44.3 µM
- TGI [3]: 4.12 µM
- TGI [4]: 7.32 µM
- TGI [5]: 54.3 µM
- TGI [6]: 13.6 µM
- TGI [7]: > 84.6 µM
- TGI [8]: 7.2 µM
- TGI [9]: 2.9 µM
- TGI [10]: 3.4 µM

SMILES: O=c1c2c3c(sc2nc2n1N=CN(c1ccccc1)C2)CCCC3
- TGI [1]: > 100 µM
- TGI [2]: > 100 µM
- TGI [3]: > 100 µM
- TGI [4]: > 100 µM
- TGI [5]: > 100 µM
- TGI [6]: > 100 µM
- TGI [7]: > 100 µM
- TGI [8]: > 100 µM
- TGI [9]: > 100 µM
- TGI [10]: > 100 µM

SMILES: Cc1ccc(Cc2cc(N3CCN(c4cccc(Cl)c4)CC3)nnc2C)cc1
- TGI [1]: > 100 µM
- TGI [2]: > 100 µM
- TGI [3]: 81.5 µM
- TGI [4]: > 100 µM
- TGI [5]: > 100 µM
- TGI [7]: > 100 µM
- TGI [8]: > 100 µM
- TGI [9]: > 100 µM
- TGI [10]: > 100 µM

SMILES: COc1ccc2c(c1)CC[C@@H]1C2CC[C@]2(C)C(=O)N(CCN(C)C)C(=O)CC12 (stereo not given in full)
- TGI [1]: > 100 µM
- TGI [3]: > 100 µM
- TGI [4]: > 100 µM
- TGI [5]: > 100 µM
- TGI [6]: > 100 µM
- TGI [7]: > 100 µM
- TGI [8]: > 100 µM
- TGI [9]: > 100 µM
- TGI [10]: > 100 µM

SMILES: CN(c1ccccc1)S(=O)(=O)c1ccc([N+](=O)[O-])cc1
- TGI [1]: > 100 µM
- TGI [2]: > 100 µM
- TGI [3]: > 100 µM
- TGI [4]: > 100 µM
- TGI [5]: > 100 µM
- TGI [7]: > 100 µM
- TGI [8]: > 100 µM
- TGI [9]: > 100 µM
- TGI [10]: > 100 µM

SMILES: Cc1ncc([N+](=O)[O-])n1CC[N+](C)([O-])CCCCn1ccnc1[N+](=O)[O-] (stereo not given)
- TGI [2]: > 100 µM
- TGI [3]: > 100 µM
- TGI [4]: > 100 µM
- TGI [5]: > 100 µM
- TGI [6]: > 100 µM
- TGI [7]: > 100 µM
- TGI [8]: > 100 µM
- TGI [9]: > 100 µM
- TGI [10]: > 100 µM

SMILES: CCn1c2nc(=O)n(CCCCCCCCSC(c3ccccc3)(c3ccccc3)c3ccccc3)c(=O)c-2nc2ccccc21
- TGI [2]: > 100 µM
- TGI [3]: > 100 µM
- TGI [4]: > 100 µM
- TGI [5]: > 100 µM
- TGI [6]: > 100 µM
- TGI [8]: > 100 µM
- TGI [9]: > 100 µM
- TGI [10]: > 100 µM

SMILES: COc1cccc2c1NC(=O)Cc1c-2[nH]c2ccccc12
- TGI [2]: > 100 µM
- TGI [3]: > 100 µM
- TGI [4]: > 100 µM
- TGI [5]: > 100 µM
- TGI [6]: > 100 µM
- TGI [7]: > 100 µM
- TGI [8]: > 100 µM
- TGI [9]: > 100 µM
- TGI [10]: > 100 µM

SMILES: CCOC(=O)c1[nH]cc(C)c1-c1cccn1-c1ccc(Cl)cc1[N+](=O)[O-]
- TGI [2]: > 100 µM
- TGI [3]: 34.9 µM
- TGI [4]: > 100 µM
- TGI [5]: 33.5 µM
- TGI [6]: 53.3 µM
- TGI [7]: 92.9 µM
- TGI [8]: 88.4 µM
- TGI [9]: > 100 µM
- TGI [10]: 56.6 µM
